# In patent publication US20260000645A1, “USE OF EBSELEN OR ONE OF THE DERIVATIVES THEREOF TO TREAT MITOCHONDRIAL PATHOLOGIES OR DYSFUNCTIONS” (ASSOCIATION FRANCAISE CONTRE LES MYOPATHIES, priority 2022, published 2026):
# How the values were obtained:
# [1] = test system: Cox2 protein in mutant strain taz1; assay: Accumulation of Cox2 protein (SDS-PAGE/immunoblot) in taz1; format: cell-based, Saccharomyces cerevisiae; conditions: 1 μM of EBS
# Description: Total protein extracts from the mutant yeast strain were analyzed by SDS-PAGE ([…] per well) using antibodies against the indicated proteins. The gels shown are representative of at least 3 experiments. Protein levels were quantified using the ImageJ software. The levels of Cox2 were normalized with respect to Ade13p and expressed with respect to the wild type (WT) strain.
# [2] = test system: fibroblast lines of patients carrying mutations of the nuclear gene NDUFV1; assay: Mitochondrial respiration of NDUFV1 patient fibroblasts (Seahorse XF96); format: cell-based, human; conditions: 48 h exposure
# Description: EBS was also tested for the ability thereof to restore mitochondrial respiration of fibroblast lines of patients carrying mutations of the nuclear gene NDUFV1 of mitochondrial complex I. The human lines NDUFV1 mimicking the human illnesses related to a mitochondrial deficit of complex I (Leigh's syndrome) are carriers of genetic mutations affecting the gene NDUFV1. These cell lines were cultivated in a DMEM medium containing 1.0 g/L of glucose and 1 mM of sodium pyruvate and 50 μg/ml of uridine (Sigma Aldrich, Lyon, France).
# The respiration was measured using a Seahorse XF96 extracellular flow metabolic analyzer in 96 well plates according to the manufacturer's protocol (Agilent Technologies). Deficient cells were exposed for 48 h to different concentrations with a dose response curve associating a range of concentrations from 25 nM to 10 μM. […]
# The measurement of the oxygen consumption rate (OCR) was recorded under basal conditions to evaluate the mitochondrial respiratory activity and then the cells were treated sequentially with 4 μg/mL of oligomycin and 1.5 μM of carbonyl cyanide p-(trifluoromethoxy) phenylhydrazone (FCCP) (Sigma-Aldrich). The basal OCR, the respiration related to ATP, the maximum respiratory capacity and the respiration by proton leak were determined. […] Maximum respiratory capacity has been determined as the rate of respiration in the presence of uncoupling FCCP. […]
# [3] = Weight of KO mice lacking the TAZ gene (mouse model of Barth syndrome); format: in vivo; conditions: 10 mg/kg force-fed twice a day from age 51 days, 1 month; vs solvent
# Description: Mice lacking the TAZ gene (KO model of Barth syndrome) or wild type (WT) gene were force-fed twice a day with 10 mg/kg of Ebselen as of an age of 51 days. The weight was regularly monitored during 1 month of treatment.
# mutant Pa nuo-51^A357V = assay: Growth halo of heat sensitive complex I mutant at 33° C.; format: cell-based, Podospora anserina; conditions: 20 nmoles of EBS, 4-5 days
# Description: The strain used in the following examples contains a specific mutation modeling a human mutation in the sub-unit NDUFV1 of complex I leading to a mitochondrial illness. This strain has a growth defect at a non-permissive temperature greater than 31.5° C.
# nuo-51^A357V: The mutation A357V was introduced into the gene nuo-51 of the wild type strain S along with a resistance cassette of nourseothricin (NatR). In order to mimic the human illness NDUFV1A341V, the genes NDI-1 and AOX were deactivated (El-Khoury et al., (2008) Curr Genet. 53:249-58)
# The heat sensitive mutant Pa nuo-51^A357V was homogeneously spread on sterile glass beads on a square Petri dish containing a solid minimal medium (M2). Small sterile filters were then placed on the agar-agar surface and 20 nmoles of EBS were added. DMSO (the vehicle of the compound) was used as a negative control. The plate was then incubated at the non-permissive temperature of 33° C. for 4-5 days then photographed.
# [4] = test system: fibroblasts of TAZ patients; assay: Mitochondrial ATP level in fibroblasts of TAZ patients (CellTiter-Glo); format: cell-based, human; conditions: EBS 12.15 nM for 96 hours
# Description: The levels of mitochondrial ATP in the fibroblasts of TAZ patients were evaluated using a Promega CellTiter-Glo kit. The cells in 96 well plates (5000/well) were treated or not treated with 12.15 nM of EBS for 96 hours then were incubated in the presence of Antimycin A (100 μM), of Rotenone (0.5 μM) or oligomycin A (3 μM).
# mutant yeast strain taz1 = assay: Respiratory growth in liquid culture (bioscreen, OD600); format: cell-based, Saccharomyces cerevisiae; conditions: taz1, liquid respiratory medium
# Description: In order to determine the optimum concentration of EBS leading to the suppression of a respiratory growth defect of the mutant yeast strain, cells undergoing exponential growth were inoculated in fresh Ethanol YPA non-fermentable media supplemented or not supplemented with increasing concentrations of EBS. The growth of cells in the liquid respiratory medium was monitored using the bioscreen system over a period of 80 h during which (OD600 nm) cell densities were sampled every 20 minutes.
structure (smiles),measurement,setting,value
"O=c1c2ccccc2[se]n1-c1ccccc1 [ebselen, 2-phenyl-1,2-benzisoselenazol-3(2H)-one]",accumulation of the protein Cox2,[1],increases
same,toxic concentration,[2],> 10 µM
same,weight of KO mice,[3],seemed to take on more weight
same,growth of the mutant (growth halo),mutant Pa nuo-51^A357V,positive effect
same,mitochondrial ATP production,[4],improves
same,"active concentration range, lower limit",mutant yeast strain taz1,≥ 1 nM
same,"active concentration range, upper limit",mutant yeast strain taz1,≤ 3 µM
same,optimum concentration,mutant yeast strain taz1,1 µM
same,toxic concentration,mutant yeast strain taz1; 80 h,≥ 27 µM
